“And” between values parts separate entries of the source, which are not always exact repeats. Identical values can stand only once. Counter-ions that a name gives are not always drawn.
Columns and labels:
[1] = tested on: pERK (Phospho/Total ERK1/2) in CT-26 Clone 299 tumors; assay: CT-26 Clone 299 pharmacodynamic model (pERK/total ERK in tumor lysates, MesoScale); format: in vivo, BALB/c-hPD1/hPDL1 mice
Method: Female BALB/c-hPD1/hPDL1 mice (GemPharmatech, aged 8-10 weeks) were inoculated subcutaneously with 1.0×10^6 CT-26 Clone 299 cells suspended in phosphate buffered saline.
Oral dose administration was continuous for 5 days and 2 doses of Retifanlimab was given. On day 5, plasma and tumor samples were collected 4 hour post oral dose and 24 hours post IP dose following CO2 asphyxiation. Blood was collected into ethylenediaminetetraacetic acid (450480 Greiner Bio-One) tubes. The plasma was analyzed for drug levels. Two tumor fragments per individual were collected and weighed into Omni Bead Ruptor tubes (19-628 Omni International) and flash frozen. One tumor piece was lysed at a 1:5 ratio with homogenization solution (water:acetonitrile:formic acid, 95:5:0.1, v:v:v) for drug concentration analysis. The second tumor piece was then lysed at a 1:5 ratio with lysis buffer (64KL1 FD, Cisbio) with added protease inhibitors (A32957 and A32965, Thermo Fisher) and Blocking Reagent (64KB1AAC, Cisbio) on a Bead Ruptor Elite homogenizer (19-042E, Omni International, Kennesaw, GA). Tumor lysates were spun at 10,000 revolutions per minute for 10 minutes at 4° C. The protein concentration was determined using the Pierce™ BCA Protein Assay method according to the manufacturer's protocol (23227 Thermo Fisher Scientific). The lysates were diluted with additional lysis buffer to a final concentration of 0.4 μg/μL. Samples were analyzed using the MesoScale Discovery Platform on the Phospho/Total ERK1/2 Whole Cell Lysate Kit (K15107D, MesoScale Discovery, Rockville, MD). The pERK levels were first normalized to total ERK for each sample and then to the average pERK/tERK ratio of the vehicle control group.

CT-26 Clone 299 cells = assay: CT-26 Clone 299 syngeneic efficacy model; format: in vivo, BALB/c-hPD1/hPDL1 mice; settings: for monotherapy-treated mice succumbed to tumor growth: after treatment cessation, by day 43, Compound 1 at 100 mg/kg
Method: BALB/c-hPD1/hPDL1 mice (GemPharmatech, strain #T004025) express human PDCD1 and CD274 (which encode the PD-1 and PD-L1 proteins, respectively) from the respective murine loci for those genes.
For survival (Kaplan-Meier) analysis: in the Compound 1 study, events were recorded when tumor volumes reached 1700 mm^3 or mice met criteria for humane endpoint (e.g. body weight loss, tumor ulceration, overall condition); in the Compound 3 study, events were recorded when tumor volumes reached 2000 mm^3, when mice met criteria for humane endpoint, or upon confirmed recurrence following a complete response (confirmed recurrence defined as a growing tumor […] following a complete response as defined above).

## Cc1nc2c(F)c(-c3cccc(Cl)c3Cl)c(CCC#N)cc2c2c1cc([C@H]1C[C@H]3C[C@H]3N1C(=O)C1CC1)n2[C@H]1[C@H]2CN[C@@H]1C2 (atropisomer, axis not shown; (Ra)) [Compound 1, 3-((Ra)-1-((1R,4R,5S)-2-azabicyclo[2.1.1]hexan-5-yl)-2-((1R,3R,5R)-2-(cyclopropanecarbonyl)-2-azabicyclo[3.1.0]hexan-3-yl)-7-(2,3-dichlorophenyl)-6-fluoro-4-methyl-1H-pyrrolo[3,2-c]quinolin-8-yl)propanenitrile monohydrochloride dihydrate]
[1]; 100 mg/kg Cmpd 1 QD, 4 Hr, monohydrochloride dihydrate
  pERK/ERK Inhibition Relative to Vehicle Control (%, Mean): 84% and 56% and 85% and 89%

## COC(=O)N1[C@@H]2C[C@@H]([C@@H](OC(F)F)C2)[C@@H]1c1cc2c(C)nc3c(F)c(-c4cccc(Cl)c4Cl)c(CCC#N)cc3c2n1[C@H]1[C@H]2CN[C@@H]1C2 (atropisomer, axis not shown; (Ra)) [Compound 3, Methyl (1R,3R,4R,5S)-3-((Ra)-1-((1R,4R,5S)-2-azabicyclo[2.1.1]hexan-5-yl)-8-(2-cyanoethyl)-7-(2,3-dichlorophenyl)-6-fluoro-4-methyl-1H-pyrrolo[3,2-c]quinolin-2-yl)-5-(difluoromethoxy)-2-azabicyclo[2.2.1]heptane-2-carboxylate]
CT-26 Clone 299 cells; Compound 3 10 mg/kg BID PO monotherapy, day 34, vs vehicle (p=0.1127)
  TGI (tumor growth inhibition): 47%
CT-26 Clone 299 cells; Compound 3 30 mg/kg BID PO monotherapy, day 34, vs vehicle (p=0.0411)
  TGI (tumor growth inhibition): 92%

## Cc1c(Nc2nc(C(F)F)nc3cc(CN4CC[C@@H](O)C4)cnc23)cccc1-c1cccc(-c2nc3cc(CN4CCC(C(=O)O)CC4)cc(C#N)c3o2)c1C [Compound 2, (R)-1-((7-Cyano-2-(3′-(2-(difluoromethyl)-7-((3-hydroxypyrrolidin-1-yl)methyl)pyrido[3,2-d]pyrimidin-4-ylamino)-2,2′-dimethylbiphenyl-3-yl)benzo[d]oxazol-5-yl)methyl)piperidine-4-carboxylic acid]
CT-26 Clone 299 cells; Compound 2 25 mg/kg BID PO monotherapy, day 25
  TGI (tumor growth inhibition): 17%
CT-26 Clone 299 cells; Compound 2 25 mg/kg BID monotherapy, Compound 3 study
  tumor growth: did not meaningfully alter tumor growth
CT-26 Clone 299 cells
  monotherapy-treated mice succumbed to tumor growth: 100%
[1]; Mus musculus, CT26, Compound 2 25 mg/kg BID, 5 days, 4-hour post dose
  inhibition at 25 mg/kg: 10%

## retifanlimab: humanized IgG4 monoclonal antibody that binds to human PD-1 [reference compound]
CT-26 Clone 299 cells
  monotherapy-treated mice succumbed to tumor growth: 90%
CT-26 Clone 299 cells; retifanlimab 10 mg/kg BIW IP monotherapy, day 25, Compound 1 study
  TGI (tumor growth inhibition): 52%
CT-26 Clone 299 cells; retifanlimab 10 mg/kg BIW monotherapy, day 34, Compound 3 study (p=0.0263)
  TGI (tumor growth inhibition): 74%
[1]; retifanlimab 10 mg/kg BIW, 24 hours post second dose
  pERK inhibition: 18%

Source: patent publication US20250114346A1, “COMBINATION THERAPY USING A KRAS G12D INHIBITOR AND PD-1 INHIBITOR OR PD-L1 INHIBITOR” (Incyte Corporation, priority 2023, published 2025)
